Assay results taken from patent US7291451B2, “Modulation of pericyte proliferation” (XOMA Technology Ltd., priority 2000, dated 2007).
Where “and” joins values, the source holds several entries; their conditions need not be identical. Equal values may be shown once. Entries after “also recorded” stand apart in the source; their conditions may differ. Each block holds one molecule with its values, some of them ahead of it.

Key:
[1] = system: human retinal pericytes (HRPC); experiment: Human retinal pericyte proliferation assay (Methylene blue, OD650); type: cell-based; details: for HRPC proliferation: initial experiment, treated once, medium not changed; for toxicity on HRPC: initial assay
Procedure: In addition to studies with primary cell cultures of bovine retinal pericytes described above, experiments were performed with a human cell line obtained from Clonetics (San Diego, Calif.) of retinal pericytes (catalog no. CC-2542 PyCRt). These human retinal pericytes (HRPC) were cultured in Dulbecco's modified Eagle's medium (DMEM, Gibco BRL, Grand Island, N.Y.) with 5.6 mM glucose and 20% fetal bovine serum (FBS, Gibco BRL, Grand Island, N.Y.).
Proliferation assays were performed as follows: HRPC were plated onto 24-well culture plates (3000 cells/well) in 5 or 10% FBS-DMEM with 5.6 mM glucose and incubated overnight. The cells were treated once with vehicle alone or with vehicle and several concentrations of XMP.627 ([SEQ ID NO: 4]), XMP.664 ([SEQ ID NO: 5]), XMP.679 ([SEQ ID NO: 3]), or XMP.728 ([SEQ ID NO: 6]) for 5 or 6 days. The medium was not changed, nor were additional amounts of test compounds added as described in the experiments of part A above. The cells were fixed and stained with Methylene blue and proliferation assayed by observation at OD650.

[2] = system: bovine retinal endothelial cells (BREC); experiment: Cell growth assay (DNA content) in bovine retinal endothelial cells; type: cell-based
Procedure: Primary cultures of bovine retinal endothelial cells (BREC) were isolated by homogenization and a series of filtration steps as described in King et al., J. Clin. Invest., 1985, 75:1028-36. BREC were subsequently cultured with endothelial cell basal medium (EBM; Clonetics, San Diego, Calif.). supplemented with 10% plasma-derived horse serum (PDHS), 50 mg/l heparin, and 50 μg/ml endothelial cell growth factor (ECGF, Roche, Indianapolis, Ind.). Cells were characterized for homogeneity by their immunoreactivity with anti-factor VIII antibody. Cells remained morphologically unchanged under these conditions, as confirmed by light microscopy. Only cells from passages 2 through 7 were used for the experiments.
(§1) A cell growth assay was performed as follows: Cells were plated onto 12-well culture plates and incubated overnight. The cells were treated with vehicle, vascular endothelial growth factor (VEGF, R & D Systems, Minneapolis, Minn.) at 25 ng/ml, serum, compounds, or combinations thereof. The medium is changed during the incubation period, with fresh medium and fresh test compound added every 2 days. After incubation for indicated time period at 37° C., the cells were lysed in 0.1% SDS and DNA content was measured by means of Hoechst-33258 dye and a fluorometer (model TKO-100, Hoefer Scientific Instruments, San Francisco, Calif.). It has been shown that total cellular DNA content measured in this manner correlates closely with actual cell number as determined by hemocytometer counting of trypsinized cells.
(§2) Determinations were performed in triplicate and all experiments were repeated at least three times. Results are expressed as the mean ±standard deviation, unless otherwise indicated. Statistical analysis employed Student's t-test or analysis of variance to compare quantitative data populations with normal distributions and equal variance. Data were analyzed using the Mann-Whitney rank sum test or the Kruskal-Wallis test for populations with non-normal distributions or unequal variance. A P-value of <0.05 was considered statistically significant.

[3] = system: MAP kinase phosphorylation; experiment: MAP kinase phosphorylation in BRPC; type: cell-based, bovine; details: 75 μg/ml
Procedure: Experiments were also performed in which the level of MAP kinase phosphorylation was determined in BRPC treated with 75 μg/ml rBPI21 or 5 μg/ml XMP.679. […] These observations indicate that exemplary BPI protein products rBPI21 and, to a lesser extent, XMP.679, enhance MAP kinase phosphorylation in BRPC.

[4] = system: bovine retinal pericytes (BRPC); experiment: Cell growth assay (DNA content, cell number) in bovine retinal pericytes; type: cell-based
Procedure: as §1, §2
Primary cultures of bovine retinal pericytes (BRPC) were isolated by homogenization and a series of filtration steps as described in King et al., J. Clin. Invest., 1985, 75:1028-36. BRPC were cultured in Dulbecco's modified Eagle's medium (DMEM, Gibco BRL, Grand Island, N.Y.) with 5.5 mM glucose and 20% fetal bovine serum (FBS, Gibco BRL, Grand Island, N.Y.). Cells were characterized for homogeneity by their immunoreactivity with monoclonal antibody 3G5 [Nayak et al., J. Exp. Med. 1988, 167:1003-15]. Cells remained morphologically unchanged under these conditions, as confirmed by light microscopy. Only cells from passages 2 through 7 were used for the experiments.
A cell growth assay was performed as described above in Example 1 and the medium was changed, with fresh medium and fresh test compound added every 2 or 3 days, preferably every 2 days. […] At 20% FBS a six to seven fold increase of total DNA was detected.

[5] = system: Bovine retinal pigment epithelial cells (RPEC); experiment: Cell growth assay in bovine retinal pigment epithelial cells; type: cell-based; details: 75 μg/ml
Procedure: as §1
Bovine retinal pigment epithelial cells (RPEC) were isolated by gentle scraping after removal of the neural retina and incubation with 0.2% collagenase as described in King et al., Diabetes, 1987, 36:1460-7. RPEC were cultured in DMEM with 5.5 mM glucose and 10% calf serum (CS, Gibco BRL, Grand Island, N.Y.). Cells were cultured in 5% CO2 at 37° C., and media were changed every other days. Cells were characterized for their homogeneity by immunoreactivity with anti-cytokeratin antibody for RPEC. […]

Molecule: XMP.627: BPI-derived peptide, SEQ ID NO: 4 (KLFRAQAKAKG; XMP.627; listed as Homo sapiens)
- concentration of maximum HRPC proliferation ([1]; 5% FBS): approximately 5 μg/ml
- effect on HRPC proliferation ([1]; 10% FBS): did increase HRPC proliferation
- effect on HRPC growth ([1]; above 10 μg/ml, 5% FBS): slight growth inhibitory effect
- effect on HRPC proliferation ([1]; approximately 0.5, 1, 5, 8 μg/ml, 5% FBS): increased HRPC proliferation in a dose responsive manner

Molecule: XMP.728: BPI-derived peptide, SEQ ID NO: 6 (KLFKAQAKAKG; XMP.728; listed as Homo sapiens)
- effect on HRPC proliferation ([1]; 10% FBS): to lesser extent
- effect on HRPC proliferation ([1]; only at approximately 5 μg/ml, 5% FBS): increased HRPC proliferation

Molecule: XMP.768: BPI protein product, SEQ ID NO: 14 (KLFRAQAK; XMP.768; listed as Homo sapiens)
- HRPC proliferation [1]: enhanced the proliferation of HRPC

Molecule: XMP.851: BPI protein product, SEQ ID NO: 15 (KLFRAQA; XMP.851; listed as Homo sapiens)
- HRPC proliferation [1]: enhanced the proliferation of HRPC

Molecule: XMP.365: BPI protein product, SEQ ID NO: 11 (KWLIQLFHKK; XMP.365; listed as Homo sapiens)
- toxicity on HRPC [1]: some toxicities

Molecule: VEGF [reference compound]
- increase of DNA content ([2]; VEGF alone at 25 ng/ml): 3 to 5 fold and 3 to 4 fold

Molecule: XMP.676: BPI protein product, SEQ ID NO: 13 (KAVIQVVAKK; XMP.676; listed as Homo sapiens)
- HRPC proliferation [1]: enhanced the proliferation of HRPC

Molecule: XMP.718: BPI protein product, SEQ ID NO: 10 (KLFRKA; XMP.718; listed as Homo sapiens)
- toxicity on HRPC [1]: some toxicities

Molecule: XMP.629: BPI protein product, SEQ ID NO: 12 (KLFRAQAKA; XMP.629; listed as Homo sapiens)
- HRPC proliferation [1]: enhanced the proliferation of HRPC

Molecule: XMP.852: BPI protein product, SEQ ID NO: 8 (KLFRAQ; XMP.852; listed as Homo sapiens)
- HRPC proliferation [1]: little or no proliferation

Molecule: XMP.664: BPI-derived peptide, SEQ ID NO: 5 (KLFRAQAK; XMP.664; listed as Homo sapiens)
- effect on HRPC growth ([1]; 10 μg/ml and higher, 5% FBS): slight growth inhibitory effect
- effect on HRPC proliferation ([1]; 10 μg/ml, 10% FBS): increased HRPC proliferation
- concentration of maximum HRPC proliferation ([1]; 5% FBS): approximately 5 μg/ml
- effect on HRPC proliferation ([1]; above 10 μg/ml, 10% FBS): inhibited proliferation
- effect on HRPC proliferation ([1]; approximately 0.5, 1, 5 μg/ml, 5% FBS): increased HRPC proliferation in a dose responsive manner

Molecule: XMP.711: BPI protein product, SEQ ID NO: 7 (KLARK; XMP.711; listed as Homo sapiens)
- HRPC proliferation [1]: little or no proliferation

Molecule: XMP.861: BPI protein product, SEQ ID NO: 9 (KLFRA; XMP.861; listed as Homo sapiens)
- HRPC proliferation [1]: little or no proliferation

- time of maximum MAP kinase phosphorylation after addition [3]: 15 min
- maximum MAP kinase phosphorylation compared with 20% FBS ([3]; 15 minutes): nearly equaled the effect of 20% FBS
B1: rBPI21: recombinant N-terminal BPI analog, amino acids 1 to approximately 193 or 199, cysteine 132 substituted with alanine (protein, UniProt P17213 32-224, looked up, variant C132A)
chain: VNPGVVVRISQKGLDYASQQGTAALQKELKRIKIPDYSDSFKIKHLGKGHYSFYSMDIREFQLPSSQISMVPNVGLKFSISNANIKISGKWKAQKRFLKMSGNFDLSIEGMSISADLKLGSNPTSGKPTITASSCSSHINSVHVHISKSKVGWLIQLFHKKIESALRNKMNSQVCEKVTNSVSSELQPYFQTL
- effect on DNA content ([2]; 5 μg/ml compound, with and without VEGF): did not have a significant effect
- effect on DNA content (VEGF-dependent growth) ([2]; VEGF 25 ng/ml plus 25 μg/ml compound): did not have a significant effect
- effect on DNA content (VEGF-dependent growth) ([2]; VEGF 25 ng/ml plus 75 μg/ml compound): decreased significantly the DNA content; also recorded: prevented VEGF-dependent growth
- effect on total DNA content (growth) ([2]; compound alone without VEGF, 25 or 75 μg/ml): did not have a significant effect
- HRPC proliferation [1]: little or no proliferation
- effect on MAP kinase phosphorylation ([3]; 1 to 60 minutes): increased MAP kinase phosphorylation over time
- stimulation of proliferation ([4]; 75 μg/mL, 5, 10 or 15% FBS): 3 fold
- increase of DNA above basal level ([4]; 75 μg/ml, 5% FBS): 5 fold
- maximum growth compared with 20% FBS ([4]; 75 μg/ml, 5% FBS): almost equaled the growth effect of 20% FBS
- growth compared with 20% FBS ([4]; 75 μg/ml, 15% FBS): increased the growth greater then 20% FBS
- effect on DNA content ([4]; 5, 25, 75 μg/ml, 5% FBS): increased DNA content in a dose responsive manner
- total number of cells per well ([4]; 5, 25, 75 μg/ml, 5% FBS): increased in a dose responsive manner
- effect on growth ([4]; 5, 25 and 75 μg/ml, 10% FBS): induced the growth of pericyte
- growth compared with 20% FBS ([4]; 25 and 75 μg/ml, 10% FBS): appeared to improve growth above that of 20% FBS
- effect on RPEC growth [5]: had no effect
